We go through 5 molecules from patent US20060037085A1, “Animal model for fetal alcohol syndrome and methods of treatment” (priority 2004, published 2006).

Data set [1] concerns Pax6, Otx2, Sox2, Sox3, NCAM, Vent1. The experiment in a line: RT-PCR of neural markers (animal caps or embryos). Type of data set: cell-based, Xenopus laevis. The source says: RT-PCR Animal caps were dissected from embryos at stage 8.5 and cultured in 67% Leibovitz's L-15 medium, pH 7.5 in the presence or absence of varied concentration of alcohol until stage 22. Total RNA was extracted from cultured animal caps with Trizol reagent (Invitrogen). Primer sets and PCR conditions for NCAM and Pax6 have been described in our previous reports (Peng, Neurobiol. Dis., 2004; Peng, J. Mol. Biol., 2004). PCR products were subject to electrophoresis on TBE gel and visualized by ethidium bromide staining.
Animal cap explant assay. […] Total RNA was extracted from animal caps or whole embryos using TRIZOL reagent (Invitrogen). The total RNA was reverse transcribed using the Superscript system (Invitrogen), and the first strand cDNA of the target gene amplified by PCR.
The Xenopus animal cap is composed of pluripotent cells that can be induced to form neural, mesodermal, or epidermal tissue, and is a useful tissue to assess the activity of various factors on neural development. Animal caps were treated with varied concentrations of alcohol as indicated.

The subject of data set [2] is Xenopus laevis tadpole brain. The experiment in a line: Histological analysis of brain injury (coronal brain sections of tadpoles). The text has this: Histological analysis of brain injury. Embryos were fixed in 2% paraformaldehyde, dehydrated, embedded in paraffin. The embryos were sectioned coronally through the head and stained with hematoxylin and eosin.
The EF-1α transcript was detected as an internal control for equal RNA load.

Data set [3] deals with alcohol-induced ROS production. The experiment in a line: ROS measurement (hydrogen peroxide level in embryos). Type of data set: in vivo, Xenopus laevis. To be noted: vitamin C pretreatment 2 hours before 0.6% ethanol. The procedure:
(A) Embryos were pretreated with or without vitamin C two hours before alcohol treatment (0.6%, 12 h, from stage 13 to 22). The embryos were harvested at stage 22 and the hydrogen peroxide level measured by the colorimetric quantitation of hydrogen peroxide method (total hydroperoxides), according to the protocols provided by the manufacturer (BIOXYTECH H202-560 kit, OXIS International, Inc., USA); (B) The NF-κB mediated transcriptional activity was measured using NF-κB luciferase reporter plasmid (pLuc-NF-κB) containing IL-6 promoter region with four repeats of NF-κB binding sites.
ROS measurement. […] At the end of the experiment, embryos were harvested and total ROS content was determined by the calorimetric quantitation of hydrogen peroxide method (total hydroperoxides), following protocols provided by the manufacturer (BIOXYTECH H202-560 kit, OXIS International, Inc. USA).

The test system of the next data set is Xenopus laevis embryos. To be noted: for Alive / dead: 15 embryos; for Body length / Eye distance: mean ± SD. As to the method:
Morphological measurements of microcephaly and growth retardation.
Vitamin C treatment. Embryos at stage 13 (initial neural plate stage) were collected and divided into groups, each containing 15-20 embryos and incubated in a plastic petri dish containing MMR medium as stated above. Vitamin C, having a concentration of 100 μM, was added either concomitantly, 2 hours before, or 2 hours after the initiation of a 12-hour alcohol exposure. The tadpoles were fixed and measurements were made as stated above.

The test system of a further data set is rats. To be noted: pregnant rats treated with folic acid concomitantly to ethanol administration; cited from earlier work.
Data set [4] concerns embryonic hippocampal cultures. To be noted: against 400-2400 mg/dl of ethanol treatment; cited from earlier work.
[5] abbreviates: 100 μM VitC 2 hours after start of 12-hour 0.6% EtOH (Post-VitC).
Where [6] appears, read: 100 μM VitC 2 hours before 12-hour 0.6% EtOH (Pre-VitC).
[7] abbreviates: 100 μM VitC concomitantly with 12-hour 0.6% EtOH.

Like-named read-outs stand apart in the source and are kept apart here. Marks after values point to notes of the source that are not given here.

Turning to `OO` [H2O2, hydrogen peroxide], in data set [1] (animal caps treated with 100 M of H2O2 instead of alcohol), the “expression of Pax6, Otx2, Sox2, Sox3, and NCAM” value is recorded as “reduced the expression”.

As for `O=C1O[C@H]([C@@H](O)CO)C(O)=C1O` [VitC, ascorbic acid], in data set [1] (ethanol treated embryos, vitamin C pretreatment), the “expression of NCAM and Pax6 (RT-PCR)” value is given as “restored significantly”. In addition, in data set [2] (vitamin C 2 hours before addition of alcohol), the “forebrain areas, histology at stage 45” value was “significant restoration of the forebrain areas”. Moreover, in data set [2] (vitamin C concomitantly with alcohol), the “width of the canal in diencephalon areas” value was “could not narrow down the canal”. For the same molecule, the “ethanol-induced hydrogen peroxide level” value in data set [3] is reported as “suppressed”. Moreover, in the data set with Xenopus laevis embryos (setting [5]), the Alive is on record as 14, the dead amounted to 1, the Body length is on record as 9.60 ± 013^b mm and the Eye distance is reported as 1.82 ± 004^b mm. For the same molecule, in the data set on Xenopus laevis embryos (setting [6]), the Alive turned out to be 14, the dead turned out to be 1, the Body length is given as 11.88 ± 006^a mm and the Eye distance is 2.13 ± 002^a mm. Further, in the data set with Xenopus laevis embryos (setting [7]), the Alive turned out to be 14, the dead came to 1, the Body length was 10.19 ± 014^a mm and the Eye distance is on record as 1.88 ± 003^a,b mm. The dead with Xenopus laevis embryos (VitC alone, 100 μM, no ethanol) is recorded as 1. The “severity of alcohol-induced microencephaly and growth retardation” value in the data set on Xenopus laevis embryos (pretreating embryos with 100 μM vitamin C) is recorded as “significantly reduced the severity”.

In the case of `Nc1nc2ncc(CNc3ccc(C(=O)N[C@@H](CCC(=O)O)C(=O)O)cc3)nc2c(=O)[nH]1` [folic acid], in the data set with rats, the “amount of ethanol-mediated oxidative stress” value is recorded as “mitigated”.

`CC1=C(/C=C/C(C)=C/C=C/C(C)=C/C=C/C=C(C)/C=C/C=C(C)/C=C/C2=C(C)CCCC2(C)C)C(C)(C)CCC1` [β-carotene]: in data set [4], the “protection of embryonic hippocampal cultures” value is listed as “protected”.

As to Vitamin E, in data set [4], the “protection of embryonic hippocampal cultures” value is “protected”.
